Activity calls are given as the source filed them. The rule behind the calls is not given here.
assay: non-covalent RecA intein splicing inhibitors, dose response, biochemical, cell-free, fluorescence, secondary screen (AID 449750)

Compound | AC50
O=C(Cc1cc(=O)[nH][nH]1)N/N=C/c1c(F)cccc1Cl | 30.7 µM
Cn1cnc([N+](=O)[O-])c1S(=O)(=O)c1cccc(Cl)c1 | 30 µM
Cc1cc[n+](C2=C([O-])c3ccccc3C(=O)/C2=N\S(=O)(=O)c2cccs2)cc1C | 4.29 µM
C=CCOC(=O)C1=C(C)NC(=O)NC1c1ccc(OC(=O)c2ccco2)c(OC)c1 (stereo not given) | > 38 µM (inactive)
Cc1[nH]n(-c2ccccc2)c(=O)c1/C=C1\C=NN=C1c1ccccc1 | 17 µM
FC(F)(F)c1nnc(-c2ccccc2)nc1Oc1ccc(Cl)cc1Cl | > 38 µM (inactive)
C/C(=N/NC(=O)Cc1cc(=O)[nH][nH]1)c1ccc([N+](=O)[O-])cc1 | 21.5 µM
CCc1cccc(NC(=O)CSCc2cc(=O)[nH][nH]2)c1 | 27.7 µM
CCn1c(O)c(N=Nc2cccc(S(=O)(=O)N3CCOCC3)c2)c(=O)n(CC)c1=S | > 38 µM (inactive)
CCN(CC)CCNC(=O)c1ccc2c(c1NCCO)C(=O)c1ccccc1C2=O | 13.1 µM
CNC1=C(N(C(C)=O)c2ccc(Br)cc2)C(=O)c2ccccc2C1=O | 2.43 µM
COc1ccc(N/C=C2\CCc3ccccc3C2=O)cc1 | > 38 µM (inactive)
Cc1ccc(C2C(C#N)=C(N)Oc3n[nH]c(-c4cccs4)c32)cc1 (stereo not given) | 15.3 µM
CC[n+]1ccc2cc(OC)c(OC)cc2c1Cc1ccc(OC)c(OC)c1 | > 38 µM (inactive)
Nc1ccc(Nc2ccccc2N)cc1 | 16 µM
FC(F)(F)c1nnc(-c2ccccc2)nc1Sc1ccccc1 | > 38 µM (inactive)
O=c1cc(-c2ccc(Cl)c(Cl)c2)[nH][nH]1 | 8.07 µM
N#C/C(=C/c1ccc2c(c1)OCO2)C(=O)Nc1ccc(O)cc1 | > 38 µM (inactive)
CC1(C)CC(C(CCN(Cc2ccccc2)C(=O)c2ccco2)c2ccc(F)cc2)CCO1 (stereo not given) | 5.14 µM
CC(C)(C)c1cc[n+](C2=C([O-])c3ccccc3C(=O)/C2=N\S(=O)(=O)c2cccs2)cc1 | 8.96 µM
Nc1ccc2ncccc2c1 | 15.5 µM
O=[N+]([O-])c1ccc(Sc2nnnn2-c2ccccc2)nc1 | > 38 µM (inactive)
Cc1ccccc1CS(=O)(=O)c1nnc([C@H](Cc2ccccc2)NC(=O)OC(C)(C)C)o1 | > 38 µM (inactive)
COc1cc(NC(C)CCCN)c2ncccc2c1 (stereo not given) | 12.3 µM
COc1cccc(-c2[nH]nc3c2C(c2ccsc2)C(C#N)=C(N)O3)c1 (stereo not given) | 5.11 µM

Compound | AC50
N#Cc1c(N2CCCCC2)nc(N)c2c(N)nc(SCC(=O)O)cc12 | > 38 µM (inactive)
CC(C)CC1C(C#N)=C(N)Oc2n[nH]c(-c3ccccc3)c21 (stereo not given) | 23.1 µM
O=C1CC(c2ccccc2)=NN1c1ccc([N+](=O)[O-])cc1 | 7.43 µM
CN(C)C(=S)N=Nc1[nH]c2ccccc2c1O | > 38 µM (inactive)
COC(=O)Cc1c(C)[nH]n(-c2cc(Cl)cc(Cl)c2)c1=O | > 38 µM (inactive)
c1coc(-c2nnc(-c3ccco3)nn2)c1 | 12.8 µM
CNc1ccc2nc3ccccc3[n+](C)c2c1 | 11.3 µM
COc1ccc(C(O)c2nccc3cc(OC)c(OC)cc23)cc1OC (stereo not given) | > 38 µM (inactive)
Cn1nc([N+](=O)[O-])c(C(C#N)c2ccccn2)c(Cl)c1=O (stereo not given) | > 38 µM (inactive)
N#Cc1nccnc1S(=O)(=O)c1cccs1 | > 38 µM (inactive)
[O-]C1=N/[N+](=C/c2ccc(Cl)c(Cl)c2)CC1 | > 38 µM (inactive)
COC(=O)C1=C(C)NC(=S)NC1c1ccc(OC(=O)c2ccco2)cc1 (stereo not given) | > 38 µM (inactive)
COc1cccc(CN2CCN(Cc3ccc(C#CC(C)(C)O)s3)CC2CCO)c1 (stereo not given) | > 38 µM (inactive)
COC(=O)/C(=C1/Oc2cc(C)oc(=O)c2S1)C(F)(F)F | > 38 µM (inactive)
Cc1ccc(NC(=O)C(CC(C)C)NC(N)=O)cc1 (stereo not given) | > 38 µM (inactive)
O=c1cc(-c2cccc([N+](=O)[O-])c2)[nH][nH]1 | 9.77 µM
COc1cc(/C=N/NC(=S)Nc2cccc(Cl)c2C)ccc1OCC(=O)N1CC(C)OC(C)C1 (stereo not given) | > 38 µM (inactive)
CS(=O)(=O)c1nc([N+](=O)[O-])nn1CCCc1ccccc1 | 10.7 µM
CCOc1cc(C(c2c(C)[nH][nH]c2=O)c2c(C)[nH][nH]c2=O)ccc1OCc1ccc([N+](=O)[O-])cc1 | 6.09 µM
CCN(CC)CCN1C(=O)c2cccc3cc(N)cc(c23)C1=O | 1.69 µM
O=c1cc(N=Nc2ccc(Cl)cc2)[nH]c(=O)[nH]1 | > 38 µM (inactive)
Cc1nnc(NC(=O)c2nc(S(=O)(=O)Cc3ccccc3)ncc2Cl)s1 | 26.5 µM
COc1ccc2[nH]c(CN3CCC(CO)(CCOc4ccccc4)CC3)c(C)c2c1 | > 38 µM (inactive)
CC1=NNC(=O)C1Cc1c(Cl)cccc1Cl (stereo not given) | > 38 µM (inactive)
O=C1C=Cc2ccccc2C1=O | 14.9 µM

Compound | AC50
O=[N+]([O-])c1ccc(Oc2cccc(Br)c2)c2ccncc12 | 13.1 µM
COc1ccc(Br)cc1[C@H]1[C@H]2C=CC[C@@H](C)[C@@H]2C(=O)N1Cc1ccccc1 | 14.4 µM
O=C(CCl)NN=C(c1ccccc1)c1ccccc1 | 6.37 µM
O=C(CCCN1C(=O)/C(=C\c2cccs2)SC1=S)Nc1ccc(O)cc1 | > 38 µM (inactive)
O=C1C=C(N(CCO)Cc2ccccc2)c2ccccc2C1=O | 4.49 µM
CC1=NN(c2cccc(Cl)c2)C(=O)C1 | 34.3 µM
Cc1[nH][nH]c(=O)c1C(c1ccc(O)c(Br)c1)c1c(C)[nH][nH]c1=O | 13.5 µM
CC(C)(C)c1cc(C(c2cccnc2)N2CCN(CCO)CC2)cc(C(C)(C)C)c1O (stereo not given) | 17.7 µM
O=C1C(Nc2ccccc2)=C(N2CCCCC2)C(=O)c2ccccc21 | 12.6 µM
Cc1cc(C(=O)CCl)c(C)n1CCc1ccccc1 | 14.2 µM
CCCc1nnc(NC(=O)c2nc(S(=O)(=O)Cc3ccc(C)cc3)ncc2Cl)s1 | 1.55 µM
O=c1[nH]cc(O)c(=O)[nH]1 | 7.38 µM
CC1=NN(c2ccc(C)cc2C)C(=O)C1C(c1cccc(O)c1)C1C(=O)N(c2ccc(C)cc2C)N=C1C (stereo not given) | 3.51 µM
O=C(N/N=C/c1ccc(OC(=O)c2ccco2)cc1)c1ccc[n+]([O-])c1 | > 38 µM (inactive)
Cc1nc(Nc2ccc(O)cc2)c2c3c(sc2n1)CCCC3 | > 38 µM (inactive)
CCN(CC)c1ccc2c(c1)CCCN2 | > 12 µM (inactive)
COc1cccc(/C=C2\SC(=S)N(CCCC(=O)N(CCO)c3ccccc3)C2=O)c1 | > 38 µM (inactive)
O=[N+]([O-])c1cncc([N+](=O)[O-])c1Nc1cccc(O)c1 | > 38 µM (inactive)
COCc1[nH]nc2c1C(c1ccccc1OC)C(C#N)=C(N)O2 (stereo not given) | 36.5 µM
Cc1ccc(SCc2[nH]nc3c2C(c2ccco2)C(C#N)=C(N)O3)cc1 (stereo not given) | 14.8 µM
O=C1C=C(NCc2ccccc2)c2ccccc2C1=O | 5.91 µM
O=[N+]([O-])c1ccc2nc(Cl)nc(-c3ccccc3)c2c1 | > 38 µM (inactive)
COc1cc(Cc2nccc3cc(OC)c(OC)cc23)c(S(=O)(=O)O)cc1OC | > 38 µM (inactive)
CC1=C(C(=O)OC(C)C)C2(O)C(=O)c3ccccc3C2(O)N1 (stereo not given) | 9.7 µM
O=C1C(=O)c2ccccc2C(O)=C1CCCCl | 35.6 µM

Compound | AC50
CC1=NN(Cc2ccccc2)C(=O)C1C(c1ccc(Cl)cc1)C(C#N)C#N (stereo not given) | 31 µM
CC(=O)N1CC2(c3ccccc3)CN(C(C)=O)CC(c3ccccc3)(C1)C2=O | > 38 µM (inactive)
CCc1nnc(NS(=O)(=O)c2ccc(NC(=S)NC(=O)/C=C/c3ccc(C(C)C)cc3)cc2)s1 | 5.98 µM
COc1cc(/C=C2\C(=O)N(CCC#N)N=C2C)ccc1OCC(=O)Nc1ccccc1 | 8.37 µM
COC(CN(C(=O)CCl)C(C(=O)NC1CCCCC1)c1ccc(C)cc1)OC (stereo not given) | 17.9 µM
CCOc1cc(C(c2c(C)[nH][nH]c2=O)c2c(C)[nH][nH]c2=O)ccc1O | 5.54 µM
Cn1c(SCC(=O)NCC2CCCO2)ncc(C(=O)Nc2ccccc2)c1=O (stereo not given) | > 38 µM (inactive)
CCCCCCCCCCOC(=O)Cn1c(COc2cccc(OC)c2)[n+](C)c2ccccc21 | 9.12 µM
CC(C)(C)c1[nH]nc2c1C(Cc1ccccc1)C(C#N)=C(N)O2 (stereo not given) | > 38 µM (inactive)
CN(C)/C=C/C(=O)c1ccc2noc(-c3ccc(F)cc3)c2c1 | > 38 µM (inactive)
Cc1cc(-c2[nH]nc3c2C(c2ccsc2)C(C#N)=C(N)O3)c(C)s1 (stereo not given) | 13.6 µM
O=C1c2cc(F)ccc2-n2c1nc1ccccc1c2=O | > 38 µM (inactive)
COc1cc(C=C2C(=O)c3ccccc3C2=O)ccc1O | > 38 µM (inactive)
COC(=O)[C@@H]1[C@@H](C(=O)OC)C2(c3ccccc3-c3ccccc32)N(c2ccc(Cl)cc2)N1C#N | 34.3 µM
Cc1[nH]nc2c1C(c1cn[nH]c1-c1ccc(F)cc1)C(C#N)=C(N)O2 (stereo not given) | > 38 µM (inactive)
Cc1ccc(-c2nc(CN3CCCC(C(=O)N4CCOCC4)C3)c(C)o2)cc1 (stereo not given) | > 38 µM (inactive)
O=C1NCCCC2c3c(cc(Br)c(O)c3Br)OC12N1CCCCC1 (stereo not given) | > 38 µM (inactive)
Oc1cccc(Nc2nc(-c3ccccc3Cl)nc3ccccc23)c1 | > 38 µM (inactive)
O=C(Nc1cccc(F)c1)N1CCC(c2ccccc2)CC1 | > 38 µM (inactive)
O=C1C(Cl)=C(N2CCOCC2)C(=O)N1c1ccc(Br)cc1 | > 38 µM (inactive)
CN(CC(=O)Nc1ccc(N2CCOCC2)cc1)CC(=O)Nc1cccc(C#N)c1 | > 38 µM (inactive)
CC(=O)n1cc(N(C(=O)CCl)c2ccc(Cl)cc2)c2ccccc21 | 2.08 µM
CCN(CCN(C)C)C(=O)c1ccc2c(c1NCCO)C(=O)c1ccccc1C2=O | > 38 µM (inactive)
CCS(=O)(=O)c1ncc(Cl)c(C(=O)Nc2ccc(C)cc2)n1 | > 38 µM (inactive)
CN1CCc2nc(SCC(=O)Nc3ccc(F)cc3)c(C#N)cc2C1 | > 38 µM (inactive)

From PubChem BioAssay AID449750 (Broad Institute, 2010)
